{"source": "paper PMC9691367", "about": "“The PROTAC selectively degrading Bcl-xL represents a novel Hedgehog pathway inhibitor with capacity of combating resistance to Smoothened inhibitors while sparing bone growth” (Theranostics, 2022)", "key": {"Bcl-xL": {"target": "Bcl-xL (Homo sapiens, UniProt Q07817)", "sequence (Q07817 whole entry, species assumed)": "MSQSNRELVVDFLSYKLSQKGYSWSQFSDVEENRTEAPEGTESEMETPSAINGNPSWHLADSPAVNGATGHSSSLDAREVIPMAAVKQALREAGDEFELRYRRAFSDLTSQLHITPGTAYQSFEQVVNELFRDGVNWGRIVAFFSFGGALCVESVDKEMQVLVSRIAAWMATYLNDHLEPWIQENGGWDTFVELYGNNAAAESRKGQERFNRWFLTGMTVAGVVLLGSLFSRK", "assay": "Co-immunoprecipitation of Bcl-xL ubiquitination in 293T cells", "format": "cell-based", "settings": "293T cells with GST-Bcl-xL and HA-Ub, 1 µM, 4 h", "experimental": "Cells were lysed in immunoprecipitation lysis buffer (#87787, Thermo Fisher Scientific) supplemented with protease and phosphatase inhibitor cocktail. Cell lysates were incubated with the indicated antibodies at 4 °C overnight, followed by incubation with Protein A/G Plus-Agarose beads (Santa Cruz Biotechnology) at 4 °C for 4 h. Immunoprecipitates were collected by centrifugation and washed three times with washing buffer. The complex was separated from the beads and then boiled for 10 min. The immunoprecipitates and inputs were analyzed by SDS-PAGE and immunoblot using the antibodies as indicated. […]\nhydrochloride; DMAP = 4-dimethylaminopyridine; TFA = trifluoroacetic acid; DMF = N,N-dimethylformamide. (D) A representative western blot analysis of SALL4 in NIH-3T3 cells after being treated with SIAIS361034 as indicated for 24 h. (E) A representative western blot analysis of hemagglutinin (HA), Bcl-xL, and GAPDH following GST-Bcl-xL immunoprecipitation of protein extracts from 293T cells. Cells were cotransfected as indicated with GST-Bcl-xL and HA-tagged ubiquitin (HA-Ub) and then were treated with or without SIAIS361034 (1 µM) and MG132 (10 µM) as […]"}, "Gli1": {"system": "Gli1", "assay": "Western blot of Gli1 in light II cells", "format": "cell-based", "settings": "1 µM", "experimental": "Cells were lysed in cell lysis buffer (50 mM Tris pH 8.0, 150 mM NaCl, 10% glycerol, 1 mM EDTA, 50 mM NaF, and 0.1% NP-40) supplemented with protease and phosphatase inhibitors. Total protein extracts of tissues were generated in radioimmunoprecipitation (RIPA) assay lysis buffer containing complete protease and phosphatase inhibitor cocktail. Protein content was quantified using the Pierce BCA Protein Assay Kit (#23225, Thermo Fisher Scientific). The proteins were separated by SDS-PAGE, electrophoretically transferred to polyvinylidene difluoride (PVDF) blotting membranes (#LC2002, Thermo Fisher Scientific), and subjected to routine immunoblot analysis with primary antibodies as follows: anti-Bcl-2 (#15071), anti-Mcl-1 (#94296), anti-VHL (#68547), anti-CRBN (#71810), and anti-Sufu (#2522) were obtained from Cell Signaling Technology (Danvers, Massachusetts, USA); anti-Bcl-xL (#ab32370), anti-Gli1 (#ab134906), and anti-Smoothened (#ab236465) were obtained from Abcam (Cambridge, CB2 0AX, UK); anti-GAPDH (#60004-1-Ig) and anti-β-tubulin (#10094-1-AP) were purchased from Proteintech Group, Inc. (Rosemont, IL 60018, USA). The results were quantified by densitometry using ImageJ software (NIH)."}, "Bcl-xL/CRBN": {"target": "T1, Bcl-xL/CRBN (Homo sapiens, UniProt Q07817+Q96SW2)", "T1 construct": "purchased Cisbio 63ADK000CB37PEG", "T1 sequence (Q07817 whole entry, species assumed)": "as above", "T1 sequence (Q96SW2 whole entry, species assumed)": "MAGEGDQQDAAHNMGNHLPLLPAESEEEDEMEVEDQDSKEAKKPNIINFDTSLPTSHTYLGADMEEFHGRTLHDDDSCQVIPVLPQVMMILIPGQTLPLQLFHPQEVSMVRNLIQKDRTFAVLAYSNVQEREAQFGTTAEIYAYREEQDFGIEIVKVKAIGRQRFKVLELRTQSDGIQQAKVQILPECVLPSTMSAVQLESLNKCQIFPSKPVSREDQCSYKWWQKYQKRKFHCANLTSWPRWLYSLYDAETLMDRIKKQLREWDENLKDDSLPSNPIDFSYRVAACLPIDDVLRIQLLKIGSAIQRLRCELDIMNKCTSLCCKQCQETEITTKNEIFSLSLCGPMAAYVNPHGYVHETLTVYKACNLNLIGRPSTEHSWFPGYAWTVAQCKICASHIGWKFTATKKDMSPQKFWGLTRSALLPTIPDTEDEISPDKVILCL", "assay": "HTRF assay for ternary complex formation", "format": "binding", "experimental": "Bcl-xL/CRBN ternary HTRF assay was used to monitor ternary complex formation between target protein, PROTAC and E3 ligase. Bcl-xL/CRBN PROTAC BINDING ASSAY KITS was purchased from Cisbio (#63ADK000CB37PEG). 200 nL compounds were transferred into 384 assay plate, followed by centrifuging at 1000 RPM. Then 5 µL Bcl-xL and CRBN protein were added into each assay well. After incubation at 25 °C for 15 min, 10 µL Tag2-Eu&Tag1-d2 working solution was added into each assay well and incubated 25 °C for 120 min. The Relative HTRF value was read with BMG (PHERAstar FSX)."}, "Sufu/Gli1 interaction": {"system": "Sufu/Gli1 interaction", "assay": "Co-immunoprecipitation of Sufu with Gli1 in NIH-3T3 cells", "format": "cell-based", "settings": "1 µM", "experimental": "Cells were lysed in immunoprecipitation lysis buffer (#87787, Thermo Fisher Scientific) supplemented with protease and phosphatase inhibitor cocktail. Cell lysates were incubated with the indicated antibodies at 4 °C overnight, followed by incubation with Protein A/G Plus-Agarose beads (Santa Cruz Biotechnology) at 4 °C for 4 h. Immunoprecipitates were collected by centrifugation and washed three times with washing buffer. The complex was separated from the beads and then boiled for 10 min. The immunoprecipitates and inputs were analyzed by SDS-PAGE and immunoblot using the antibodies as indicated."}, "Wnt signaling pathway": {"system": "Wnt signaling pathway", "assay": "TCF/LEF luciferase reporter assay in LS174T cells", "format": "cell-based", "settings": "PGE2 1 μM, 24 h, SIAIS361034 10 μM, H-89 20 μM", "experimental": "Cells seeded in 96-well plates were treated with various treatments as indicated. The luciferase activity in the cell lysates was measured using Dual-Luciferase Reporter Assay System (Promega, Madison, WI, USA) according to the manufacturer's instructions in a luminometer (Molecular Devices, Sunnyvale, CA). The firefly luciferase values were normalized to Renilla values. […]\nμM) for 6 h. Data represent mean ± SD (n = 3). (C) TCF/LEF luciferase analysis of the effect of SIAIS361034 on Wnt signaling pathway in LS174T cells. The LS174T cellswere transfected with TCF/LEF luciferase reporter and Renilla-TK plasmids and […]\nData represent mean ± SD (n = 3).\n(1 picture or pasted object on this page, not shown here)"}, "[1]": {"system": "hair growth and Hh pathway activity in skin", "assay": "Depilatory mouse model", "format": "in vivo", "experimental": "For Depilatory model studies, male C57BL/6J mice (7 to 8 weeks of age) were purchased from Shanghai Lingchang Biotechnology Co. (Shanghai, China). After 2 days of acclimation, only healthy mice were used in the experiment. The back skin of the anesthetized mice was shaved and depilated using the depilatory Nair (Church & Dwight Co., Inc.). After 4 days, the depilated mice were randomized into groups for treatments as indicated. The back skin phenotypes were recorded by taking pictures every 3 days. Skin tissues were harvested 6 h after the last dosage to examining Gli1 mRNA expression as well as Gli1 and Bcl-xL protein levels."}, "[2]": {"system": "bone growth of young mice", "assay": "Bone growth of young mice (body weight, Micro-CT, H&E, IHC)", "format": "in vivo, mouse", "settings": "6-week-old mice treated P12 to P16"}, "platelets": {"system": "platelets", "assay": "Platelet toxicity assay in C57BL/6J mice", "format": "in vivo, mouse", "settings": "8 h and 24 h", "text": "Blood was collected at different time points via retro-orbital bleeding in anticoagulation tube. Platelets or different blood cells were enumerated using BM800 blood analyzer (Bowlinman Sunshine)."}}}
{"smiles": "CC1(C)CCC(c2ccc(Cl)cc2)=C(CN2CCN(c3ccc(C(=O)NS(=O)(=O)c4ccc(NCCCN5CCN(CCCC#Cc6cccc7c6CN(C6CCC(=O)NC6=O)C7=O)CC5)c(S(=O)(=O)C(F)(F)F)c4)cc3)CC2)C1", "note": "(centres unmarked) [SIAIS361034]", "values": [{"measurement": "Bcl-xL ubiquitination", "setting": "Bcl-xL", "result": "induce Bcl-xL ubiquitination"}, {"measurement": "Gli1 protein level", "setting": "Gli1", "result": "decreased Gli1 protein level"}, {"measurement": "Ternary complex formation with Bcl-xL and CRBN E3 ligase", "setting": "Bcl-xL/CRBN", "result": "could form a stable ternary complex"}, {"measurement": "interaction of Sufu with Gli1", "setting": "Sufu/Gli1 interaction", "result": "increased the interaction of Sufu with Gli1"}, {"measurement": "TCF/LEF luciferase activity (Wnt signaling) activated by PGE2", "setting": "Wnt signaling pathway", "result": "failed to repress"}, {"measurement": "hair growth during depilation-induced hair regeneration", "setting": "[1]; male C57BL/6J mice, administered after 4 days of depilation", "result": "significantly retarded hair growth"}, {"measurement": "Hh activity in skin (Gli1 mRNA)", "setting": "[1]; skin harvested 6 h after the last dosage, RT-qPCR", "result": "suppressed the Hh activity"}, {"measurement": "Gli1 and Bcl-xL protein levels in skin tissues", "setting": "[1]; skin harvested 6 h after the last dosage, western blot", "result": "suppressed the expression of Gli1 and Bcl-xL"}, {"measurement": "platelets and other indispensable blood cells at the end of the experiment", "setting": "[2]", "result": "no side effects"}, {"measurement": "number of platelets", "setting": "platelets; SIAIS361034 single i.p. 50 and 100 mg/kg, ABT-263 single p.o. 100 mg/kg", "result": "no appreciable alterations"}, {"measurement": "other blood cells (neutrophils, red blood cells)", "setting": "platelets; single i.p. 50 and 100 mg/kg", "result": "no influence"}]}
